Values of other authors as cited in US20030211945A1, “Natural herbicide compositions” (priority 2002, published 2003).
Like-named read-outs stand apart in the source and are kept apart here.

Tested on: selected weeds

Structure (SMILES): CC(=O)O [acetic acid]
- weed control (concentrations of acetic acid below about 5%): variable results
- weed control (high concentrations of acetic acid): control selected weeds
